± gives the standard deviation of the averaged measurements.
Experiments:
CRIZOTINIB = compound: C[C@@H](Oc1cc(-c2cnn(C3CCNCC3)c2)cnc1N)c1c(Cl)ccc(F)c1Cl [CRIZOTINIB]; experiment: surviving fraction relative to DMSO-only wells; higher = less growth inhibition; conditions: exposure time: 5 days
Summary of the method: (§1)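 Viability values are CellTiter-Glo luminescence readings, given as surviving fraction against the median of DMSO-only wells. The readings were taken after 10 minutes at room temperature, following five days of continuous exposure to inhibitors at 0.5, 1, 5, 10, 50, 100, 500 and 1000 nM that began 24 hours after log-phase tumour cell lines were seeded at 250–500 cells per well in 384-well plates. Every line was screened three times and kept only if replicate Pearson r >0.7 and median Z' >0.3.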

ABIRATERONE = compound: C[C@]12CC[C@H](O)CC1=CC[C@@H]1[C@@H]2CC[C@]2(C)C(c3cccnc3)=CC[C@@H]12 [ABIRATERONE]; experiment: as above; conditions: exposure time: 5 days
Summary of the method: as §1

Test System | surviving fraction (CRIZOTINIB; 0.5 nM) | surviving fraction (CRIZOTINIB; 1 nM) | surviving fraction (CRIZOTINIB; 10 nM) | surviving fraction (CRIZOTINIB; 50 nM) | surviving fraction (CRIZOTINIB; 100 nM) | surviving fraction (CRIZOTINIB; 500 nM) | surviving fraction (CRIZOTINIB; 1000 nM) | surviving fraction (ABIRATERONE; 0.5 nM) | surviving fraction (ABIRATERONE; 1 nM) | surviving fraction (ABIRATERONE; 5 nM) | surviving fraction (ABIRATERONE; 10 nM) | surviving fraction (ABIRATERONE; 50 nM) | surviving fraction (ABIRATERONE; 100 nM) | surviving fraction (ABIRATERONE; 500 nM) | surviving fraction (ABIRATERONE; 1000 nM) | surviving fraction (CRIZOTINIB; 5 nM)
HCC1954 BREAST | 1.16 ± 0.14 | 1.25 ± 0.11 | 1.55 ± 0.21 | 1.03 ± 0.18 | 0.987 ± 0.06 | 0.831 ± 0.082 | 0.689 ± 0.12 | 0.838 ± 0.082 | 1.01 ± 0.13 | 1.05 ± 0.088 | 1.13 ± 0.12 | 1.09 ± 0.23 | 1.12 ± 0.041 | 1.08 ± 0.086 | 1.02 ± 0.014 | 
HCT15 LARGE INTESTINE | 1.05 ± 0.083 | 1.1 ± 0.1 |  | 1.18 ± 0.042 | 1.17 ± 0.04 | 1.09 ± 0.049 | 0.265 ± 0.022 | 1.08 ± 0.027 | 1.12 ± 0.024 | 1.1 ± 0.054 | 1.1 ± 0.029 | 1.11 ± 0.026 | 1.1 ± 0.0051 | 1.11 ± 0.04 | 1.1 ± 0.036 | 1.14 ± 0.044
HELA CERVIX | 1.09 ± 0.057 | 1.07 ± 0.062 | 1.09 ± 0.03 | 1.09 ± 0.12 | 1.07 ± 0.08 | 1.09 ± 0.072 | 0.581 ± 0.028 | 1.08 ± 0.068 | 1.07 ± 0.037 | 1.1 ± 0.032 | 1.03 ± 0.023 | 1.2 ± 0.048 | 1.2 ± 0.062 | 1.23 ± 0.074 | 1.15 ± 0.055 | 1.08 ± 0.055
HOS BONE | 1.03 ± 0.026 |  |  | 1.04 ± 0.025 | 1.09 ± 0.022 | 0.685 ± 0.041 | 0.575 ± 0.014 | 1.03 ± 0.02 | 1.025 ± 0.0032 | 1.08 ± 0.029 | 1.02 ± 0.014 | 1.09 ± 0.019 | 1.095 ± 0.0072 | 1.08 ± 0.028 | 1.06 ± 0.025 | 1.05 ± 0.017
HOSMNG BONE | 0.954 ± 0.09 | 0.983 ± 0.1 |  | 0.649 ± 0.012 | 0.501 ± 0.017 | 0.329 ± 0.032 | 0.227 ± 0.011 | 0.985 ± 0.035 | 0.99 ± 0.049 | 1 ± 0.077 | 0.973 ± 0.039 | 1.08 ± 0.042 | 1.1 ± 0.087 | 1.05 ± 0.096 | 1.08 ± 0.014 | 
HSSYII SYNOVIAL | 1.04 ± 0.045 | 1.03 ± 0.037 | 1 ± 0.083 | 0.934 ± 0.034 |  | 0.392 ± 0.037 | 0.189 ± 0.0013 | 0.989 ± 0.03 | 0.972 ± 0.034 | 0.937 ± 0.013 | 0.974 ± 0.027 | 0.983 ± 0.068 | 0.966 ± 0.023 | 0.962 ± 0.048 | 0.957 ± 0.042 | 1.03 ± 0.05
HT1080 SOFT TISSUE | 1.07 ± 0.038 | 1.07 ± 0.028 | 1.06 ± 0.017 | 1.04 ± 0.062 | 1.07 ± 0.052 | 1.02 ± 0.042 | 0.798 ± 0.064 | 1.01 ± 0.013 | 1.05 ± 0.015 | 1.03 ± 0.012 | 1.02 ± 0.017 | 1.01 ± 0.023 | 1.02 ± 0.02 | 1.04 ± 0.027 | 0.997 ± 0.019 | 1.07 ± 0.016
HU09 BONE | 0.86 ± 0.084 | 0.956 ± 0.13 | 1.14 ± 0.06 | 1.02 ± 0.044 | 1.02 ± 0.042 | 0.511 ± 0.063 | 0.233 ± 0.048 | 1.02 ± 0.086 | 1.11 ± 0.048 | 1.17 ± 0.18 | 1.12 ± 0.14 | 1.21 ± 0.086 | 1.18 ± 0.13 | 1.03 ± 0.089 | 1.05 ± 0.12 | 1.13 ± 0.099
HUO3N1 BONE | 1.03 ± 0.016 | 1.02 ± 0.049 | 1.07 ± 0.083 |  |  |  | 0.787 ± 0.061 | 1.03 ± 0.019 | 1.0307 ± 0.00058 | 1.07 ± 0.049 | 1.11 ± 0.025 | 1.07 ± 0.035 | 1.11 ± 0.029 | 1.02 ± 0.012 | 0.995 ± 0.046 | 1.117 ± 0.0087
JIMT1 BREAST | 1.01 ± 0.029 | 1.01 ± 0.029 | 1 ± 0.032 | 1.07 ± 0.045 | 1.08 ± 0.036 | 0.833 ± 0.044 | 0.538 ± 0.022 | 0.9997 ± 0.0033 | 0.965 ± 0.027 | 0.981 ± 0.02 | 0.962 ± 0.013 | 1.08 ± 0.047 | 1.08 ± 0.032 | 1.02 ± 0.042 | 0.929 ± 0.012 | 1.03 ± 0.012
JURKAT HAEMATOPOIETIC AND LYMPHOID TISSUE | 1.04 ± 0.011 |  | 0.96 ± 0.035 |  | 0.928 ± 0.028 | 0.212 ± 0.0087 | 0.306 ± 0.011 | 1.09 ± 0.027 | 1.106 ± 0.0066 | 1.09 ± 0.022 | 1.07 ± 0.016 | 1.08 ± 0.018 | 1.03 ± 0.037 | 1.01 ± 0.022 | 0.995 ± 0.029 | 
KPD BONE | 0.936 ± 0.05 | 1.01 ± 0.038 | 1.16 ± 0.03 |  |  |  | 0.245 ± 0.011 | 0.966 ± 0.05 | 0.993 ± 0.054 | 1.02 ± 0.012 | 1.07 ± 0.043 | 1.07 ± 0.054 | 1.09 ± 0.041 | 1.01 ± 0.035 | 0.976 ± 0.054 | 
LM7 BONE |  | 1.01 ± 0.043 |  | 1.04 ± 0.051 | 1.12 ± 0.07 | 0.591 ± 0.046 | 0.221 ± 0.0062 | 0.954 ± 0.014 | 0.963 ± 0.097 | 1.07 ± 0.15 | 1.01 ± 0.026 | 1.05 ± 0.021 | 1.06 ± 0.094 | 0.97 ± 0.058 | 0.979 ± 0.038 | 1.07 ± 0.067
LNCAP PROSTATE | 1.01 ± 0.15 |  | 0.924 ± 0.094 | 0.872 ± 0.061 | 0.904 ± 0.12 | 0.653 ± 0.063 | 0.425 ± 0.065 | 0.875 ± 0.08 | 0.996 ± 0.24 | 0.92 ± 0.026 | 0.869 ± 0.11 | 0.93 ± 0.1 | 0.976 ± 0.15 | 0.84 ± 0.12 | 0.791 ± 0.14 | 
MCF7 BREAST | 0.963 ± 0.04 |  | 0.968 ± 0.042 | 1 ± 0.025 | 0.981 ± 0.021 | 1 ± 0.05 | 0.617 ± 0.035 | 0.961 ± 0.071 | 0.917 ± 0.059 | 0.902 ± 0.098 | 0.945 ± 0.027 | 1.01 ± 0.024 | 0.874 ± 0.039 | 1.05 ± 0.066 | 0.921 ± 0.017 | 0.967 ± 0.011
MDAMB134 BREAST |  | 1.01 ± 0.028 | 1.06 ± 0.04 | 0.91 ± 0.0085 |  | 1.05 ± 0.019 | 0.947 ± 0.026 | 1.12 ± 0.043 | 0.896 ± 0.18 | 1.36 ± 0.096 | 0.943 ± 0.063 | 1.12 ± 0.049 | 1.15 ± 0.37 | 0.927 ± 0.13 | 0.965 ± 0.098 | 0.93 ± 0.068
MDAMB157 BREAST | 1.03 ± 0.087 | 0.999 ± 0.027 | 0.977 ± 0.044 | 1.06 ± 0.11 | 1.04 ± 0.082 | 0.754 ± 0.021 | 0.601 ± 0.029 | 0.85 ± 0.017 | 0.892 ± 0.1 | 0.912 ± 0.081 | 1.12 ± 0.1 | 1.01 ± 0.092 | 1.09 ± 0.14 | 1.01 ± 0.1 | 0.957 ± 0.11 | 1.06 ± 0.076
MDAMB231 BREAST | 0.997 ± 0.019 | 1.01 ± 0.024 | 1 ± 0.023 | 0.947 ± 0.031 | 0.9384 ± 0.0074 | 0.541 ± 0.011 | 0.352 ± 0.022 | 0.991 ± 0.011 | 0.998 ± 0.048 | 1.02 ± 0.023 | 0.992 ± 0.031 | 1.02 ± 0.013 | 1.03 ± 0.024 | 1.02 ± 0.014 | 0.942 ± 0.027 | 0.999 ± 0.034
MDAMB361 BREAST | 0.815 ± 0.053 | 0.898 ± 0.094 | 0.848 ± 0.079 | 0.828 ± 0.07 |  | 0.882 ± 0.067 | 1.03 ± 0.095 | 0.881 ± 0.035 | 0.872 ± 0.096 | 0.82 ± 0.045 | 0.825 ± 0.076 | 1.53 ± 0.14 | 0.91 ± 0.04 | 0.837 ± 0.072 | 0.719 ± 0.07 | 0.881 ± 0.035
MDAMB436 BREAST | 1.01 ± 0.032 | 0.97 ± 0.11 | 1.03 ± 0.13 | 0.965 ± 0.11 | 1.07 ± 0.022 |  | 0.916 ± 0.1 | 0.954 ± 0.13 | 0.934 ± 0.063 | 0.915 ± 0.083 | 0.93 ± 0.061 | 1.02 ± 0.049 | 0.895 ± 0.052 | 0.953 ± 0.035 | 0.894 ± 0.037 | 1.02 ± 0.086
MDAMB453 BREAST | 1.1 ± 0.049 | 1.06 ± 0.064 | 1.14 ± 0.12 |  | 1.11 ± 0.039 | 0.844 ± 0.042 | 0.803 ± 0.043 | 1.05 ± 0.053 | 1.04 ± 0.13 | 1.15 ± 0.028 | 1.06 ± 0.072 | 1.09 ± 0.086 | 1.08 ± 0.0082 | 1.01 ± 0.029 | 1.006 ± 0.0072 | 1.17 ± 0.079
MDAMB468 BREAST | 1.08 ± 0.018 | 1.12 ± 0.072 | 1.1 ± 0.094 | 1.16 ± 0.029 | 1.06 ± 0.015 | 0.666 ± 0.039 | 0.276 ± 0.007 | 0.965 ± 0.013 | 1.04 ± 0.034 | 0.997 ± 0.079 | 1.07 ± 0.052 | 1.18 ± 0.13 | 1.12 ± 0.053 | 1.05 ± 0.11 | 0.961 ± 0.09 | 1.11 ± 0.023

From the supplement of paper PMC6045584
